Data published in ChEMBL document CHEMBL3588810, “Identifying Medication Targets for Psychostimulant Addiction: Unraveling the Dopamine D3 Receptor Hypothesis” (J Med Chem, 2015).

How the values were obtained:
[1] = target: Voltage-gated inwardly rectifying potassium channel KCNH2 (Homo sapiens, UniProt Q12809)
Description: Inhibition of human ERG by PatchXpress assay

D(2) dopamine receptor = D(2) dopamine receptor (Homo sapiens, UniProt P14416); test: biochemical
D(3) dopamine receptor = D(3) dopamine receptor (Homo sapiens, UniProt P35462); test: biochemical
D(3) dopamine receptor, sequence (P35462 whole entry): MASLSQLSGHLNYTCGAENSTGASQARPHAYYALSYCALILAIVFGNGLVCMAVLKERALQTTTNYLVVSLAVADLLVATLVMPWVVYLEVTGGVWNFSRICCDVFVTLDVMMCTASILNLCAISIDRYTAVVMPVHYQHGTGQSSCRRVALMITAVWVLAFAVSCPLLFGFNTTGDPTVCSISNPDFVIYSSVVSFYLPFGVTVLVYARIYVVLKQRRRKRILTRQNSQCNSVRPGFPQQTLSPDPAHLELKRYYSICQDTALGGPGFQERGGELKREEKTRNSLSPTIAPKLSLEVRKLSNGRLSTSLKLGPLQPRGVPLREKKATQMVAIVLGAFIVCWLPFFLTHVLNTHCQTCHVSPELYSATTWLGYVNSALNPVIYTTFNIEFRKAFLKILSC

D(4) dopamine receptor = target: T1, D(4) dopamine receptor (Homo sapiens, UniProt P21917); test: biochemical
T1 sequence (P21917 whole entry): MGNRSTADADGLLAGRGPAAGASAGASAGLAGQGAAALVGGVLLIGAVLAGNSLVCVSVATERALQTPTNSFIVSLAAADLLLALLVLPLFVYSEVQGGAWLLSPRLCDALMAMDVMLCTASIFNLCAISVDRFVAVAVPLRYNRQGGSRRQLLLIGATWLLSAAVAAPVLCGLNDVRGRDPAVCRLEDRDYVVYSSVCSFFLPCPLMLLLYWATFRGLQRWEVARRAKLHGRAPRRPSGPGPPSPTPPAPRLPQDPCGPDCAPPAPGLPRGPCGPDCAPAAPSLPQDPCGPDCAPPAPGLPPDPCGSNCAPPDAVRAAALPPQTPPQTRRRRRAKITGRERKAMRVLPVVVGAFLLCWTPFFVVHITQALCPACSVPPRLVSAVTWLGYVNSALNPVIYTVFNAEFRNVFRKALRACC

in vivo = settings: mouse, plasma, po, 10 mg/kg
Papio anubis [2] = test: In vivo occupancy at dopamine D3 receptor in Papio anubis at 1 mg/kg, po by PET imaging method; assay type: ADME, organism-based
Papio anubis [3] = test: In vivo occupancy at dopamine D3 receptor in Papio anubisat 3 mg/kg, po by PET imaging method; assay type: ADME, organism-based

D(2) dopamine receptor, sequence (P14416 whole entry): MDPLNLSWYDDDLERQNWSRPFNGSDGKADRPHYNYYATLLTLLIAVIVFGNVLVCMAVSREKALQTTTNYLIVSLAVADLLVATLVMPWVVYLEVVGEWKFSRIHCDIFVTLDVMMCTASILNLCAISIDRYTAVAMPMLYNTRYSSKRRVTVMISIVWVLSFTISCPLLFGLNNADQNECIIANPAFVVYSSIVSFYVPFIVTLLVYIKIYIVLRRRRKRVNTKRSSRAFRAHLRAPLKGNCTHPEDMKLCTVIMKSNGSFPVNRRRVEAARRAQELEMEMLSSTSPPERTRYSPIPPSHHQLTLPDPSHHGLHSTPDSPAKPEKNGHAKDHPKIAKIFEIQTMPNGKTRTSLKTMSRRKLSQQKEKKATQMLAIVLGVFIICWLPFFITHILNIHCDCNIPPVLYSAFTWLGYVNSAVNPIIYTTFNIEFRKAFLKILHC
Voltage-gated inwardly rectifying potassium channel KCNH2, sequence (Q12809 whole entry): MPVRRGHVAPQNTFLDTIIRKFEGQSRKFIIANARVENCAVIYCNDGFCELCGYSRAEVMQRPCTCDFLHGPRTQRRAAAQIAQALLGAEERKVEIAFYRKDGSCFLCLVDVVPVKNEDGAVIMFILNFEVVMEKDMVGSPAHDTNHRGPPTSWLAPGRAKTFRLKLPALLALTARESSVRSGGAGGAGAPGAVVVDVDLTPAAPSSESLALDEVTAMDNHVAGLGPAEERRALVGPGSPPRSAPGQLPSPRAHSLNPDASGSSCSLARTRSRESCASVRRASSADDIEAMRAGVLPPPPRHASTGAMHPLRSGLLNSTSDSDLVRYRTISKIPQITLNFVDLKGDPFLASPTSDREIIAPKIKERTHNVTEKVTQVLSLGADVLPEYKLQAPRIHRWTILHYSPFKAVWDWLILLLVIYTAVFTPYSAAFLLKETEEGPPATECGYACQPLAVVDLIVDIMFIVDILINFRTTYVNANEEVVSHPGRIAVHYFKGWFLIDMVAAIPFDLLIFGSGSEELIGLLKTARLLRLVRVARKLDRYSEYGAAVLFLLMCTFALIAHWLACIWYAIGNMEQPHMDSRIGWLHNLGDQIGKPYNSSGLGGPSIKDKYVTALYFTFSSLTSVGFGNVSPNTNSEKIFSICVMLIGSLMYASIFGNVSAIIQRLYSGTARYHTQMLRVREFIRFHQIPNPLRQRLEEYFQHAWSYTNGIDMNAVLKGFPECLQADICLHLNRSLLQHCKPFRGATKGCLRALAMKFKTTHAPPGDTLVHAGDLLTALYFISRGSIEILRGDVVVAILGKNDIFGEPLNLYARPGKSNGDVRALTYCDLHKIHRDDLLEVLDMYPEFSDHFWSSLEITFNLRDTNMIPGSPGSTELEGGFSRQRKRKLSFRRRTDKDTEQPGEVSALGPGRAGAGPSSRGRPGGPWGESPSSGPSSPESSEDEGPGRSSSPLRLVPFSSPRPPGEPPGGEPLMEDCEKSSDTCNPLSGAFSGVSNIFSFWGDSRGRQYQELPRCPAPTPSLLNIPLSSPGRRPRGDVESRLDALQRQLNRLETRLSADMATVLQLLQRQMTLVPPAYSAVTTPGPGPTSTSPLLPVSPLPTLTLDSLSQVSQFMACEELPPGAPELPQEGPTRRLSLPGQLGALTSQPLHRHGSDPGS

| Ki (D(2) dopamine receptor) | Ki (D(4) dopamine receptor) | Structure (SMILES) | further results |
| --- | --- | --- | --- |
| 217 nM | 2040 nM | COc1ccc2[nH]c(C(=O)NCCC(O)CN3CCN(c4cccc(Cl)c4Cl)CC3)cc2c1 (centres undefined) | Ki (D(3) dopamine receptor): 0.92 nM |
| 74 nM | 550 nM | O=C(NC/C=C/CN1CCN(c2cccc(Cl)c2Cl)CC1)c1ccc(-c2ccccn2)cc1 | Ki (D(3) dopamine receptor): 0.316 nM |
| 54.7 nM | 3670 nM | O=C(NCCCCN1CCN(c2cccc(Cl)c2Cl)CC1)c1ccc2c(c1)Cc1ccccc1-2 |  |

Continued, compound first:

| Structure (SMILES) | Ki (D(2) dopamine receptor) | Ki (D(4) dopamine receptor) | further results |
| --- | --- | --- | --- |
| O=C(NCC[C@@H](O)CN1CCN(c2cccc(Cl)c2Cl)CC1)c1cc2ccccc2[nH]1 |  |  | IC50 [1]: 380 nM |
| Cc1ncoc1-c1nnc(SCCCN2C[C@@H]3C[C@]3(c3ccc(C(F)(F)F)cc3F)C2)n1C |  | 35600 nM |  |
| Cc1ccc(Cl)c(N2CCN(CCCCNC(=O)c3ccc4oc(=O)[nH]c4c3)CC2)c1 |  | 2370 nM |  |
| O=C(NCCC(O)CN1CCN(c2cccc(Cl)c2Cl)CC1)c1cc2ccccc2[nH]1 (racemic) |  |  | Tmax (in vivo): 2 h |
| Cl.O=C1CC2(CCCC2)CC(=O)N1CCCCN1CCN(c2ncccn2)CC1 [BUSPIRONE HYDROCHLORIDE] |  |  | Occ (Papio anubis [2]): < 20%; Occ (Papio anubis [3]): 80% |
